For orientation: ED50 means the midpoint of the dose-response relation.

Like-named read-outs stand apart in the source and are kept apart here.

Data on 1 molecule can be found in US20030199424A1, “Method of treatment and/or prophylaxis” (priority 2002, published 2003).

The test system of assay [1] is STZ-diabetic rats. Briefly: Opioid-mediated antinociception (Von Frey, % MPE) in STZ-diabetic rats. The note with it: for ED50: Rattus norvegicus, read-out: mean (±SEM) ED50 of s.c. morphine; for timing of the peak antinociceptive effect: morphine 6.1 mg/kg s.c., control STZ-diabetic rats; for time to reach peak levels of antinociception: s.c. morphine, high-dose oral candesartan-treated STZ-diabetic rats.
Protocol: In all cases, opioids were administered by a single s.c. injection (100 μL) into the dorsal region at the base of the neck whilst under light CO2/O2 (50:50%) anaesthesia using a 250 μL Hamilton syringe. […] By contrast, the opioid-naïve, weight-matched, non-diabetic candesartan control rats were given high-dose oral candesartan (2 mg/kg/day) for 7 days before opioid testing was initiated.
Immediately prior to administration of s.c. bolus doses of either opioid, baseline paw withdrawal thresholds were quantified using VFFs in an identical manner to the weekly baseline Von Frey monitoring described above. Following s.c. opioid administration, VFF assessments were performed at the following post-dosing times: 15, 30, 45, 60, 90, 120 and 180 min.
The VFF scores for individual rats were converted to the Percentage of the Maximum Possible Antinociceptive Effect (% MPE), according the following formula (Brady & Holtzmann, 1982): [formula]
The mean (±SEM) percentage maximum AUC (% Max AUC) was calculated according to the following formula: [formula]
ED50 estimation was facilitated by inclusion of the theoretical maximum and minimum % Max AUC values. The Mann-Whitney test was used to compare %MPE AUC ED50 values between treatment groups. The statistical significance criterion was p<0.05.

Assay [2] deals with STZ-diabetic rats. Particulars: cited from earlier work.
Assay [3] deals with non-diabetic rats. In words: Opioid-mediated antinociception (Von Frey, % MPE) in non-diabetic control rats. The assay is classed as in vivo, rat. The note with it: for ED50: Rattus norvegicus. The protocol:
A second group of STZ-diabetic rats received vehicle (DMSO:water 10:90) by oral gavage (protocol-control rats). In the third group, weight-matched, naive, non-diabetic control rats (non-diabetic candesartan control rats) were also treated with candesartan for one wk prior to opioid antinociceptive testing to determine any intrinsic effects of candesartan on baseline pain scores and on opioid-mediated antinociception.
The statistical significance criterion was p<0.05.

Assay [4] relates to non-diabetic rats. Particulars: control non-diabetic rats; previously determined by Saini (2000); cited from earlier work.

Consider `CN1CC[C@]23c4c5ccc(O)c4O[C@H]2[C@@H](O)C=C[C@H]3[C@H]1C5` [morphine], for which the ED50 with STZ-diabetic rats [1] (504 h) was 2.5 mg/kg; in the assay on STZ-diabetic rats [1] (1512 h) it was 2.3 mg/kg; with STZ-diabetic rats [1] (2016 h), 2.1 mg/kg; in the assay with STZ-diabetic rats [1] (4032 h), 2.4 mg/kg; in the assay with non-diabetic rats [3] (read-out: ED50 of s.c. morphine, non-diabetic rats on high-dose oral candesartan 2.0 mg/kg/day), 2.3 ± 0.3 mg/kg; in the assay with non-diabetic rats [3] (sc, read-out: mean (±SEM) ED50 of s.c. morphine, control untreated non-diabetic rats), 2.9 mg/kg. In addition, the “antinociceptive response evoked by morphine” value with STZ-diabetic rats [1] (control STZ-diabetic rats of the present studies, 12 wks post-STZ and beyond) was “marked decrease”. Further, the “time to achieve the peak antinociceptive effect” value in the assay on STZ-diabetic rats [1] (morphine 2.4 mg/kg s.c., STZ-diabetic rats 24 wks post-STZ, oral candesartan 2.0 mg/kg/day) came out at 60 min; with non-diabetic rats [3] (morphine 2.4 mg/kg s.c., control non-diabetic rats), 45 min. Also, the entries for the “timing of the peak antinociceptive effect” value in the assay on STZ-diabetic rats [1] (3 wks post-STZ) and in the assay with STZ-diabetic rats [1] (9 wks post-STZ) were “approximately 45 min” and 60 min, respectively. Besides, the “time to reach peak levels of antinociception” value with STZ-diabetic rats [1] (3 wks post-STZ) is recorded as 45 min; in the assay on STZ-diabetic rats [1] (beyond 12 wks post-STZ), 60 min. For the same molecule, the antinociceptive efficacy entry with STZ-diabetic rats [2] (s.c. morphine, control STZ-diabetic rats by 12 wks post-STZ (Smith et al., 2001)) was “completely abolished”. The ED50 morphine dose in the assay on STZ-diabetic rats [2] (s.c., STZ-diabetic rats at 3 and 9 wks post-STZ, previously determined by Smith et al. (2001)) is 6.1 mg/kg. The “ED50 of s.c. morphine (single bolus dose)” value in the assay with non-diabetic rats [4] is around 2.4 mg/kg.
